Test results reported in patent publication US7985072B2, “Method and apparatus for tooth rejuvenation and hard tissue modification” (Rejuvedent LLC, priority 2005, dated 2011).

System: gingival tissue
Assay: Safe treatment time (STT): onset of discomfort on subjects' gingival tissue
Type: in vivo, human
Parameters: key to effect of discomfort on gingival tissue: “−” means that the subject experienced no discomfort; “+” means that some discomfort was reported
Method: It was discovered, that a high concentration and low pH acid can work well for exposure times long enough to produce significant changes to hard tissue. The use of high concentration, edible acids for treatment of hard tissues is limited by the action of such acids on soft tissues. […] The typical application time for the desired depth of etching can be from 1-5 minutes for home use, and up for up to 10-20 minutes for professional use. The safe treatment time (STT) is defined as the time during which acid can interact with the soft tissues without damaging them. The STT depends on the acid concentration and the temperature, i.e. STT (pH,T), where pH is the pH of the acid, and T is the temperature of the acid. […] The experiment was conducted on subjects with healthy oral tissues. Prior to treatment, the acid was heated to a control temperature T, using a thermostat, and a small volume (approximately 5×10^−3 ml) of acid was applied to an area of the subject's gingival tissue. The thermo-relaxation time of such a volume is approximately 5-10 seconds. To provide for a relatively constant temperature on the tissue surface, the acid was reapplied at the same temperature T to the same area every 5-10 seconds. This procedure was repeated until the subject reported discomfort. A feeling of discomfort always precedes tissue damage. Therefore, the time of the onset of discomfort can be used as an estimate of the STT with a certain safety margin.

SMILES: O=C(O)CC(O)(CC(=O)O)C(=O)O [citric acid]
- safe treatment time (STT) (50° C., pH of 1.5): greater than 8 minutes
- damage to soft tissues (high concentrations and high temperatures (up to 90° C.)): did not cause damage to soft tissues
- effect of discomfort on gingival tissue (pH=1.5, T +20 °C, t 1 min): −
- effect of discomfort on gingival tissue (pH=1.5, T +20 °C, t 2 min): −
- effect of discomfort on gingival tissue (pH=1.5, T +20 °C, t 3 min): −
- effect of discomfort on gingival tissue (pH=1.5, T +20 °C, t 4 min): −
- effect of discomfort on gingival tissue (pH=1.5, T +20 °C, t 5 min): −
- effect of discomfort on gingival tissue (pH=1.5, T +20 °C, t 6 min): −
- effect of discomfort on gingival tissue (pH=1.5, T +20 °C, t 7 min): −
- effect of discomfort on gingival tissue (pH=1.5, T +20 °C, t 8 min): −
- effect of discomfort on gingival tissue (pH=1.5, T +20 °C, t 9 min): −
- effect of discomfort on gingival tissue (pH=1.5, T +20 °C, t 10 min): −
- effect of discomfort on gingival tissue (pH=1.5, T +20 °C, t 11 min): −
- effect of discomfort on gingival tissue (pH=1.5, T +20 °C, t 12 min): +
- effect of discomfort on gingival tissue (pH=1.5, T +36 °C, t 1 min): −
- effect of discomfort on gingival tissue (pH=1.5, T +36 °C, t 2 min): −
- effect of discomfort on gingival tissue (pH=1.5, T +36 °C, t 3 min): −
- effect of discomfort on gingival tissue (pH=1.5, T +36 °C, t 4 min): −
- effect of discomfort on gingival tissue (pH=1.5, T +36 °C, t 5 min): −
- effect of discomfort on gingival tissue (pH=1.5, T +36 °C, t 6 min): −
- effect of discomfort on gingival tissue (pH=1.5, T +36 °C, t 7 min): −
- effect of discomfort on gingival tissue (pH=1.5, T +36 °C, t 8 min): −
- effect of discomfort on gingival tissue (pH=1.5, T +36 °C, t 9 min): −
- effect of discomfort on gingival tissue (pH=1.5, T +36 °C, t 10 min): +
- effect of discomfort on gingival tissue (pH=1.5, T +50 °C, t 1 min): −
- effect of discomfort on gingival tissue (pH=1.5, T +50 °C, t 2 min): −
- effect of discomfort on gingival tissue (pH=1.5, T +50 °C, t 3 min): −
- effect of discomfort on gingival tissue (pH=1.5, T +50 °C, t 4 min): −
- effect of discomfort on gingival tissue (pH=1.5, T +50 °C, t 5 min): −
- effect of discomfort on gingival tissue (pH=1.5, T +50 °C, t 6 min): −
- effect of discomfort on gingival tissue (pH=1.5, T +50 °C, t 7 min): −
- effect of discomfort on gingival tissue (pH=1.5, T +50 °C, t 8 min): +
- effect of discomfort on gingival tissue (pH=1.5, T +70 °C, t 1 min): −
- effect of discomfort on gingival tissue (pH=1.5, T +70 °C, t 2 min): −
- effect of discomfort on gingival tissue (pH=1.5, T +70 °C, t 3 min): −
- effect of discomfort on gingival tissue (pH=1.5, T +70 °C, t 4 min): −
- effect of discomfort on gingival tissue (pH=1.5, T +70 °C, t 5 min): −
- effect of discomfort on gingival tissue (pH=1.5, T +70 °C, t 6 min): +
- effect of discomfort on gingival tissue (pH=1.5, T +90 °C, t 1 min): −
- effect of discomfort on gingival tissue (pH=1.5, T +90 °C, t 2 min): −
- effect of discomfort on gingival tissue (pH=1.5, T +90 °C, t 3 min): +
